Test results as given in patent US20100028467A1, “Composition Comprising Ginsenosides Isolated From The Extract Of Processed Ginseng For Preventing And Treating Thrombotic Disease” (Ginseng Science, Inc., priority 2008, published 2010).
Where two headings read alike, the source gives them in different places.

Tests used:
[1] = test system: AA-induced platelet aggregation; experiment: Platelet aggregation inhibition test (aggregometer), AA-induced; assay type: cell-based, rat; details: for IC50: AA 30˜60×10^−6M with near-threshold collagen, rat adjusted PRP; for fold stronger activity than ASA on AA-induced aggregation: relative to ASA
Protocol: (§1) 7 weeks-year old Sprgue-Dawley male white rat (240±20 g, Orient Bio Co. Ltd) was anesthetized with diethyl ether. The blood of rat was collected from heart using a syringe containing 2.2% sodium citrate (10% v/v) and centrifuged for 10 mins with the speed of 200×g and the supernatant (upper layer) of buffy coat was collected using by serum separator (Mediland Co. Ltd, 10×250 mm) to afford platelet rich plasma containing supematant(PRP). The residue was centrifuged at 1500×g for 15 min to obtain the platelet poor plasma (PPP) and the PRP was diluted with PPP to adjust the final platelet number in PRP to 4.0-4.5×10^8/ml. Platelet number was counted using a platelet counter (Excell 18 MWI, DANAM Electronics, USA) disclosed in the literature (Lee Y. Y. et al., Anti-platelet Aggregating and anti-oxidative activities of 11-O-(4′-O-Methylgalloy)-bergenin, A new compound isolated from Crassul cv. “Himaturi”, Planta Med., 71, pp 776-777).
(§2) An aliquote (500 μl) of platelet count adjusted PRP was preincubated for 3 minutes at 37° C. in an aggregometer (490-X optical aggregometer, Chrono-Log Corp, USA) with constant stirring at 1,000 rpm. 5 μl of ginsenoside solution was added followed by successive addition of aggregation inducing agent (5 μl) at an intervals of 30 s to incubate for 30 sec with stirring at the speed of 1100 rpm. Arachidonic acid (AA, Sigma, A8798), Thromboxane A2 (U46619, Sigma, D8174) and collagen (Chrono-Log, No. 385) were used as aggregation inducing agents at the concentration of 30˜60×10^−6M (AA), 2˜4×10^−6M (U46619) and 2˜4×10^−6 g/ml (collagen) respectively. Aspirin was used as a positive control. […] The aggregation induced by AA and U46619 was determined in presence of a near-threshold concentration (1.0-1.4 μg/ml and 0.8-1.2 μg/ml, respectively) of collagen that can only induce change in platelet shape but no aggregation.
(§3) Inhibition (%) was calculated as follows: Inhibition (%)=(1−maximal aggregation of sample-treated aPRP/maximal aggregation of vehicle-treated aPRP)×100 All experiments were performed in tripticates. IC50 values were calculated from the linear regression of the plot of mean values (n=3) of percent inhibition versus concentration of corresponding ginsenoside. Sigma Plot software was used for graphing. Regression equations were calculated using Regression Wizard from the Sigma Plot equation library.

[2] = test system: U46619 (thromboxane A2 mimetic drug)-induced platelet aggregation; experiment: Platelet aggregation inhibition test (aggregometer), U46619-induced; assay type: cell-based, rat; details: for IC50: U46619 2˜4×10^−6M with near-threshold collagen, rat adjusted PRP
Protocol: as §1, §2, §3

[3] = test system: collagen-induced platelet aggregation; experiment: Platelet aggregation inhibition test (aggregometer), collagen-induced; assay type: cell-based, rat; details: for IC50: collagen 2˜4×10^−6 g/ml, rat adjusted PRP
Protocol: as §1, §2, §3

[4] = test system: human plasma coagulation; experiment: Anti-coagulation test, aPTT (activated partial thromboplastin time); assay type: biochemical
Protocol: (§4) The inhibitory effect of the ginsenosides prepared in Examples on human plasma coagulation was determined by aPTT (activated partial thromboplastin time), PT(prothrombin time) and TT(thrombin time) tests.
(§5) Fresh freeze plasma was procured from the blood bank of Seoul National University Hospital (www.snuh.org) to use in the Anti-coagulation Test in human plasma.
(§6) To determine aPTT, 0.1 ml plasma treated with test samples was incubated at 37° C. for 2 mins and aPTT reagent (Diagnostica Stago, Cat. 0595) was added thereto to incubate for 3 mins. The coagulation time from the starting time of plasma coagulation with 0.1 ml of 20 mM calcium chloride solution to the ending time of plasma agglutination was determined using by fibrometer (BBL Fibrosystems, Fischer Scientific, USA).

[5] = test system: human plasma coagulation; experiment: Anti-coagulation test, PT (prothrombin time); assay type: biochemical
Protocol: as §4, §5
as §6, with “PT and TT,” for “aPTT,”, “samples in the case of PT and 0.2 ml plasma treated with test samples in the case of TT” for “samples”, “respectively. 2 ml of PT” for “and aPTT”, “0605) and TT reagent (Diagnostica Stago, Cat. 0611) were” for “0595) was”

[6] = test system: human plasma coagulation; experiment: Anti-coagulation test, TT (thrombin time); assay type: biochemical
Protocol: as §4, §5
as §6, with “PT and TT,” for “aPTT,”, “samples in the case of PT and 0.2 ml plasma treated with test samples in the case of TT” for “samples”, “respectively. 2 ml of PT” for “and aPTT”, “0605) and TT reagent (Diagnostica Stago, Cat. 0611) were” for “0595) was”

[7] = test system: rat platelet aggregation induced by ADP; experiment: Modified smear method, ADP-induced platelet aggregation in PRP; assay type: cell-based; set-up: key: ++: full aggregation of platelet; +: intermediate aggregation of platelet; ±: slight aggregation of platelet; −: no aggregation of platelet; details: ADP 3.2 × 10^−6 M
Protocol: (§7) The inhibitory effect of the ginsenosides prepared in Examples on the rat platelet aggregation was determined according to the procedure disclosed in the literature (Yun-Choi et al., Modified smear method for screening potential inhibitors of platelet aggregation from plant sources, J. Nat. Prod., 48(3), pp 363-370, 1985).
(§8) The blood of 7 weeks-year old Sprgue-Dawley rat (male, 240±20 g, Orient Bio Co. Ltd) was collected using a syringe containing 2.2% sodium citrate (10% v/v) and centrifuged for 10 mins with the speed of 200× g to collect platelet rich plasma containing supernatant(PRP). 0.16 ml of PRP was treated with 0.2 ml of SG, SGbu-1, and SGBu-2 as test samples and 0.2 ml of solutions of arachidonic acid (Sigma, A8798), ADP (Sigma, A4386) and collagen (Chrono-Log, No. 385) as platelet aggregation inducers (control group) to incubate for 4 mins at 37° C.
(§9) Thin Smear prepared from step 1-1 was stained and the intensity of platelet aggregation result was observed by microscopy method. The intensity of platelet aggregation result was divided into […] categories, i.e., “++”: full aggregation of platelet; “+”: intermediate aggregation of platelet; “±”: slight aggregation of platelet; “−”: no aggregation of platelet.

[8] = test system: rat platelet aggregation induced by collagen; experiment: Modified smear method, collagen-induced platelet aggregation in PRP; assay type: cell-based; set-up: key: ++: full aggregation of platelet; +: intermediate aggregation of platelet; ±: slight aggregation of platelet; −: no aggregation of platelet; details: collagen 2 × 10^−5 g/ml
Protocol: as §7, §8, §9

[9] = test system: rat platelet aggregation induced by arachidonic acid; experiment: Modified smear method, arachidonic acid-induced platelet aggregation in PRP; assay type: cell-based; set-up: key: ++: full aggregation of platelet; +: intermediate aggregation of platelet; ±: slight aggregation of platelet; −: no aggregation of platelet; details: AA 4 × 10^−4 M
Protocol: as §7, §8, §9

SMILES | inhibitory effect on AA-induced platelet aggregation (in words) [1] | IC50 [1] [µM] | inhibitory effect on U46619-induced platelet aggregation (in words) [2] | IC50 [2] [µM] | inhibitory effect on collagen-induced platelet aggregation (in words) [3] | IC50 [3] [µM] | aPTT [4] [s] | PT [5] [s] | TT [6] [s] | fold stronger activity than ASA on AA-induced aggregation [1] [fold] | also measured
CC(C)=CCC[C@](C)(O)[C@H]1CC[C@]2(C)[C@@H]1[C@H](O)C[C@@H]1[C@@]3(C)CC[C@H](O[C@@H]4O[C@H](CO)[C@@H](O)[C@H](O)[C@H]4O[C@@H]4O[C@H](CO)[C@@H](O)[C@H](O)[C@H]4O)C(C)(C)[C@@H]3CC[C@]12C (racemic) [Racemic ginsenoside Rg3, ginsenoside Rg3] | exhibited inhibitory effect |  |  |  |  |  |  |  |  |  | 
CC(C)=CCC[C@](C)(O)[C@H]1CC[C@]2(C)[C@@H]1[C@H](O)C[C@@H]1[C@@]3(C)CC[C@H](O[C@@H]4O[C@H](CO)[C@@H](O)[C@H](O)[C@H]4O[C@@H]4O[C@H](CO)[C@@H](O)[C@H](O)[C@H]4O)C(C)(C)[C@@H]3CC[C@]12C [20(R)-ginsenosides Rg3, 20(R)-ginsenoside Rg3] |  | > 100 | inhibited | 357 | inhibited | 492 | 50.3 | 24.1 | 13.6 |  | inhibitory effect on AA-induced platelet aggregation (in words) ([1]; listed as 20(R)-Rg3): only poor platelet antiaggregating activity; inhibitory effect on collagen-induced platelet aggregation (in words) ([3]; listed as 20(R)-Rg3): comparable to that of ASA
CC(C)=CCC[C@](C)(O)[C@H]1CC[C@]2(C)[C@@H]1[C@H](O)C[C@@H]1[C@@]3(C)CC[C@H](O[C@@H]4O[C@H](CO)[C@@H](O)[C@H](O)[C@H]4O[C@@H]4O[C@H](CO)[C@@H](O)[C@H](O)[C@H]4O)C(C)(C)[C@@H]3CC[C@]12C [20(S)-ginsenosides Rg3, 20(S)-ginsenoside Rg3] | relatively strong inhibitory effect | 53 |  | > 700 |  | > 700 | 57.2 | 23.5 | 12.9 |  | 
CC(=O)Oc1ccccc1C(=O)O [Aspirin(ASP), Aspirin] |  |  |  |  |  |  |  |  |  |  | intensity of platelet aggregation, inducer ADP ([7]; 2.8 × 10^−3 M Aspirin): −; intensity of platelet aggregation, inducer ADP (value in brackets) ([7]; Aspirin (5.5 × 10^−3 M)): ±; intensity of platelet aggregation, inducer collagen ([8]; 1.4 × 10^−3 M Aspirin): −; intensity of platelet aggregation, inducer collagen (value in brackets) ([8]; Aspirin (2.8 × 10^−3 M)): ±; intensity of platelet aggregation, inducer AA ([9]; 0.7 × 10^−3 M Aspirin): −; intensity of platelet aggregation, inducer AA (value in brackets) ([9]; Aspirin (1.4 × 10^−3 M)): ±; IC50 ([1]; Platelet): 66 µM; IC50 ([2]; Platelet): 508 µM; IC50 ([3]; Platelet): 588 µM
CC(C)=CC/C=C(\C)[C@H]1CC[C@]2(C)[C@@H]1[C@H](O)C[C@@H]1[C@@]3(C)CC[C@H](O[C@@H]4O[C@H](CO)[C@@H](O)[C@H](O)[C@H]4O[C@@H]4O[C@H](CO)[C@@H](O)[C@H](O)[C@H]4O)C(C)(C)[C@@H]3CC[C@]12C [ginsenoside Rg5] |  | 8 |  | 102 | comparable to that of ASA | 409 | 66.0 | 28.1 | 14.1 | 8 | 
C=C(CCC=C(C)C)[C@H]1CC[C@]2(C)[C@@H]1[C@H](O)C[C@@H]1[C@@]3(C)CC[C@H](O[C@@H]4O[C@H](CO)[C@@H](O)[C@H](O)[C@H]4O[C@@H]4O[C@H](CO)[C@@H](O)[C@H](O)[C@H]4O)C(C)(C)[C@@H]3CC[C@]12C [ginsenoside Rk1] | strongest inhibitory effect among four tested compounds | 3 | strongest inhibitory effect among four tested compounds | 78 | strongest inhibitory effect among four tested compounds | 197 | 54.5 | 29.8 | 14.3 | 22 | fold higher activity than ASA on collagen-induced aggregation ([3]; relative to ASA): 3 fold
